Series [1] in a line: Liquid stability / solubility of high-concentration EMES in water with C8 amine oxide. The following applies: 25% EMES, about 2% C8 AO; FIG. 6b.
Procedure: Similar approaches were taken for examining the impact of increasing EMES concentration on liquid stability (i.e., examining the solubility of the surfactant in solution at a given concentration), and the ability of hydrotropes to improve EMES solubility. Specifically, samples of EMES in water were prepared at different concentrations and observed as described above for any evidence of instability or poor solubility.
Series [2] can be described thus: Storage stability (Pass/Fail) of base liquid detergent formulation with 9.5% EMES plus candidate hydrotrope. Format: physicochemical. Also noted: key: a sample was said to “Pass” if it remained a clear isotropic liquid at the indicated challenge temperature; a sample was said to “Fail” if it showed any of the above-described evidence of instability or insolubility.

Series [3] can be described thus: Rheology, 40 mm circular plate rheometer (flowability/pumpability). Format: physicochemical. As to conditions: agent at about 5% to about 8%; results not shown. The protocol:
A solution of 35% EMES+7% C8 amine oxide in water was prepared as described in the foregoing examples. […] The rheology of the solution was then tested using a 40 mm circular plate rheometer. A conditioning step was performed which brought the plate to 25° C., and a pre-shear step was carried out at 0.7958 Pa for 30 sec, and then the device was equilibrated until it reached 0 velocity. Then the main continuous ramp step began on the solution, which ran for 1 minute, and the shear stress was increased from 0.1 to 250 Pa. A total of 15 data points were collected, and the device remained at 25° C. the entire time. […] Solutions of about 40% or more EMES, however, required a slightly higher amine oxide content to remain flowable and pumpable, but the shear stress necessary was inordinately high. Therefore, for applications in which it may be desirable to pump the surfactant formulation, it is preferable to use 35% or lower EMES in the formulation.
We also evaluated whether or not inclusion of one or more additional components in the solution would improve the pumpability of high concentration EMES formulations. Specifically, ethanol or glycerine at about 5% to about 8% were included in formulations containing 35% EMES/7% C8 amine oxide.

A short description of series [4]: Interfacial surface tension / CMC (detergency), pendant drop method, Kruss DSA100. As to conditions: 0 to 250 ppm in water; FIG. 1. Format: physicochemical. The text has this: First, we addressed the fact that MES has typically been thought of as a component that can show poor detergency. A surfactant's cleaning performance (i.e., detergency) can be measured directly by an examination of its interfacial tension (IFT) as a function of its critical micelle concentration (CMC, the concentration where the surfactant's monomers arrange themselves in a spherical shape so that their hydrophobic tails can trap oil). We therefore wanted to examine the suitability of various surfactants, including various types of MES, for use in reducing surface tension (i.e., detergency) over various surfactant concentrations. Surfactants were titrated in water at concentrations from 0 to 250 ppm (which is typical of “in use” conditions for surfactant formulations in household laundry methods), and the interfacial surface tension of these solutions was measured as a function of concentration using the pendant drop method on a Kruss DSA100 drop shape analyzer. […] As one of ordinary skill will readily understand, other tensiometric methods of determining interfacial surface tension can also be used, for example using a Du Nouy ring, drop volume, or bubble tensiometer; suitable instrumentation and methods for measuring surface tension using such approaches are well-known in the art. […]

Setting [5] is: material 2.00 % w/v in base detergent with 9.5% EMES, 1 week.
[6] abbreviates: material 2.00 % w/v in base detergent with 9.5% EMES, 3 cycles, -20° C.
Setting [7] is: material 2.00 % w/v in base detergent with 9.5% EMES, 12 weeks.
Where [8] appears, read: material 2.00 % w/v in base detergent with 9.5% EMES, 52 weeks.

Read-outs that look alike come from different tables or passages of the source.

`CCCCCCCC[N+](C)(C)[O-]` [C8 AO, octyl dimethyl amine oxide]: the “appearance of EMES solution with hydrotrope” value in series [1] is on record as “nearly clear, isotropic solution”.
Regarding `CCO` [Ethanol, Ethyl alcohol, reference compound], the “125° F. storage” value in series [2] (setting [5]) is recorded as “Pass”. Further, the Freeze/Thaw storage result in series [2] (setting [6]) is recorded as “Pass”. Also, in series [2] (setting [7]), the “40° F. storage” value is given as “Fail” and the “105° F. storage” value is on record as “Pass”. For the same compound, the “Room Temp. storage” value in series [2] (setting [8]) is “Pass”. Also, the “flowability of 35% EMES/7% C8 amine oxide with added agent” value in series [3] is recorded as “worse”.
Consider `CCCCCCCCCC[N+](C)(C)[O-]` [Genamino x DC40, Decyl dimethyl amine oxide], for which, in series [2], the “40° F. storage” value is “Fail”, the “105° F. storage” value is on record as “Pass” and the “125° F. storage” value is reported as “Pass”. For the same compound, in series [2] (setting [6]), the Freeze/Thaw storage result is on record as “Pass”. In addition, the “Room Temp. storage” value in series [2] (setting [8]) is reported as “Pass”.
With `CC(O)CO` (stereo not shown) [Propylene glycol, Propylene glycol (1,2-propane diol), reference compound], the “125° F. storage” value in series [2] (setting [5]) was “Pass”. In addition, in series [2] (setting [6]), the Freeze/Thaw storage result is given as “Pass”. In addition, in series [2] (setting [7]), the “40° F. storage” value is listed as “Fail” and the “105° F. storage” value is on record as “Pass”. Besides, in series [2] (setting [8]), the “Room Temp. storage” value is listed as “Pass”.
On to `CCCCCCCC[N+](C)(C)[O-]` [Synthetic C8 3853-01, Octyl dimethyl amine oxide], for which, in series [2], the “40° F. storage” value is listed as “Pass”, the “105° F. storage” value was “Pass” and the “125° F. storage” value is on record as “Pass”. Further, the Freeze/Thaw storage entry in series [2] (setting [6]) is “Pass”. Besides, in series [2] (setting [8]), the “Room Temp. storage” value is on record as “Pass”.
Consider `C[N+](C)(C)CC(=O)O` [Tomamine LH, Betaine], for which, in series [2], the “40° F. storage” value is given as “Fail”, the “105° F. storage” value is “Pass” and the “125° F. storage” value is reported as “Pass”. Further, the Freeze/Thaw storage entry in series [2] (setting [6]) was “Pass”. In addition, the “Room Temp. storage” value in series [2] (setting [8]) is on record as “Pass”.
Take `CCCCCCCCCCCC(=O)OCCOCCOCCOCCOCCOCCOCCOCCOCCOCCOCCOCCOCCOCCOCCOCCOCCOCCOCCOCCOCC(OCCOCCOCCOCCOCCOCCOCCOCCOCCOCCOCCOCCOCCOCCOCCOCCOCCOCCOCCOCCO)C1OCC(OCCOCCOCCOCCOCCOCCOCCOCCOCCOCCOCCOCCOCCOCCOCCOCCOCCOCCOCCOCCO)C1OCCOCCOCCOCCOCCOCCOCCOCCOCCOCCOCCOCCOCCOCCOCCOCCOCCOCCOCCOCCO` (stereo not shown) [Tween 20, Polysorbate 20]: in series [2], the “40° F. storage” value was “Fail”, the “105° F. storage” value was “Pass”, the “125° F. storage” value is reported as “Pass” and the Freeze/Thaw storage result is listed as “Pass”. Also, the “Room Temp. storage” value in series [2] was “Pass”.
Turning to Akkylglucoside [AG6206], in series [2], the “40° F. storage” value is reported as “Fail”, the “105° F. storage” value is reported as “Pass” and the “125° F. storage” value is reported as “Pass”. In series [2] (setting [6]), the Freeze/Thaw storage entry is “Pass”. For the same compound, in series [2] (setting [8]), the “Room Temp. storage” value is reported as “Pass”.
With “Glycerine (propane 1,2,3-triol) [reference compound]”, in series [2], the “40° F. storage” value is listed as “Fail”, the “105° F. storage” value is listed as “Pass”, the “125° F. storage” value is recorded as “Pass” and the Freeze/Thaw storage result was “Pass”. Further, the “Room Temp. storage” value in series [2] is listed as “Pass”. The “flowability of 35% EMES/7% C8 amine oxide with added agent” value in series [3] is on record as “worse”.
Turning to Lauramine oxide [Ammonyx LO], in series [2], the “40° F. storage” value is listed as “Fail”, the “105° F. storage” value is given as “Pass” and the “125° F. storage” value was “Pass”. Moreover, the Freeze/Thaw storage entry in series [2] (setting [6]) is “Pass”. Further, the “Room Temp. storage” value in series [2] (setting [8]) was “Pass”.
As to Methyl ester sulfonate [MES], in series [4], the “critical micelle concentration (CMC), compared with LAS, SLES” value is recorded as “reaches its CMC the quickest” and the “interfacial tension (IFT), compared with LAS, SLES” value is listed as “lowest IFT at each concentration measured”.
In the case of “Sodium xylene sulfonate [reference compound]”, in series [2], the “40° F. storage” value is given as “Fail”, the “105° F. storage” value is reported as “Pass”, the “125° F. storage” value was “Pass” and the Freeze/Thaw storage result is on record as “Pass”. In series [2], the “Room Temp. storage” value was “Pass”.

(Values after patent US9222059B2, “Cleaning formulations with improved surfactant solubility and methods of production and use thereof” (The Sun Products Corporation, priority 2011, dated 2015).)
